Reference: patent publication US6492382B1, “Dried or frozen pharmaceutical preparation containing a class III antiarrhythmic compound” (AstraZeneca AB, priority 1998, dated 2002)
Entries after “also recorded” stand apart in the source; their conditions may differ.

Key:
solubility in water = type: physicochemical
[1] = stability in water solution; type: physicochemical; conditions: decomposition especially at a low pH
[2] = administered intravenously to a human patient; average; cited from earlier work

In the case of `CC(C)(C)OC(=O)N1CC2CC(CN(C[C@H](O)COc3ccc(C#N)cc3)C2)C1` [Compound A, 3,7-diazabicyclo[3.3.1]-nonane-3-carboxylic acid, 7-[(2S)-3-(4-cyanophenoxy)-2-hydroxypropyl]-1,1-dimethylethyl ester], the solubility in water (solubility in water) is reported as “poorly soluble in water; also recorded: low water solubility” and the “stability in water solutions” value [1] is reported as “unstable in water solutions; also recorded: decomposition in water solution”.
In the case of `CCCCCCCN(CC)CCCC(O)c1ccc(NS(C)(=O)=O)cc1` (stereo not drawn) [ibutilide], the half-life of elimination [2] is given as “around 6 hours”.
